In article PMC12426935, “On-Cell Saturation Transfer Difference NMR Spectroscopy on Ion Channels: Characterizing Negative Allosteric Modulator Binding Interactions of P2X7” (Journal of the American Chemical Society, 2025):
Where two headings read alike, the source gives them in different places.

Assays:
[1] = biological target: T1, mouse P2X7 (mP2X7) (Mus musculus, UniProt Q9Z1M0); test: fura-2 intracellular calcium assay on HEK-293 stable cell line expressing mouse P2X7; assay type: cell-based
T1 construct: expressed in transfected cells
T1 sequence (Q9Z1M0 1-595): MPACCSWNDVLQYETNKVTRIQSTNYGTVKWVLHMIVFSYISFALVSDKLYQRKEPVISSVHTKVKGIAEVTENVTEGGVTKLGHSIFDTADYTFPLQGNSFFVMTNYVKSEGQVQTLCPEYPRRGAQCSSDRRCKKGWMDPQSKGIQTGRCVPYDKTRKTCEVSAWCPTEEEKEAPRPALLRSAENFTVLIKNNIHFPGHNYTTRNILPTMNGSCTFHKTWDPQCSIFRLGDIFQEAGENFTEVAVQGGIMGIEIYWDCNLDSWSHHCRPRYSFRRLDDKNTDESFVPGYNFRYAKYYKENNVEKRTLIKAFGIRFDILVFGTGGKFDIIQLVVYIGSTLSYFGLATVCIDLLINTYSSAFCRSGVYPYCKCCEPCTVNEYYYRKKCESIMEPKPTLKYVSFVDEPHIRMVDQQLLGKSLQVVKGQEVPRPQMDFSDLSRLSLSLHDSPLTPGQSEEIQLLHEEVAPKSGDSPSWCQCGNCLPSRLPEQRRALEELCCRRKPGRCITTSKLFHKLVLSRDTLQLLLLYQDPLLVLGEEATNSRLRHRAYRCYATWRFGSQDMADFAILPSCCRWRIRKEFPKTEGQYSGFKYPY
Method: (§1) Genetically edited HEK-293 cells lacking P2Y2 receptors were used to generate stable cell lines expressing human P2X7 (hP2X7), mouse P2X7 (mP2X7), rat P2X7 (rP2X7), or mutants of the hP2X7 NAM site (F88A, M105A, and F103A). Transfection was performed using lipofectamine 2000 (Fisher Scientific), and cells were subjected to Geneticin (800 μg/mL) selection for 2–3 weeks. This was followed by single cell cloning by limiting dilution in 96-well plates. Individual clones were selected for further study based on ATP-induced TO-PRO-3 uptake on a BD Cytoflex flow cytometer. Cell lines were maintained in DMEM:F12 media supplemented with 10% fetal bovine serum (PanBiotech), penicillin and streptomycin (Fisher Scientific) and kept in a humidified incubator with 5% CO2. Stable P2X7-expressing cells were kept under Geneticin selection at a concentration of 400 μg/mL. Passaging was performed twice weekly using 0.25% Trypsin-EDTA (Fisher Scientific).
P2X7 responses were measured by monitoring intracellular calcium responses using fura-2AM loaded cells. Cells were plated at 2–2.5 × 10^4 cells/well the day before experiments in 96-well plates (NUNC) coated with 50 μg/mL poly-D-lysine (Merck Millipore). A loading buffer containing 2 μM fura-2AM (HelloBio) and 250 μM sulfinpyrazone (Merck Millipore) in a low divalent buffer (145 mM NaCl, 5 mM KCl, 0.2 mM CaCl2, 10 mM HEPES, 13 mM glucose, pH 7.3) was added to cells for 45 min at 37 °C. After loading, the buffer was removed and replaced with calcium-containing extracellular solution (145 mM NaCl, 5 mM KCl, 2 mM CaCl2, 10 mM HEPES, 13 mM glucose, pH 7.3). Responses were measured using a Flexstation 3 plate reader (Molecular Devices) with dual excitation wavelengths of 340 and 380 nm and single emission wavelength of 510 nm. The sample interval was 3.5 s, and each well was recorded for 180 s. Fura-2 ratios were calculated in Softmax Pro v5.4; zero baseline was applied, and responses were measured as normalized area under the curve (AUC). […]

[2] = biological target: T2, F88A hP2X7 (Homo sapiens, UniProt Q99572, F88A); test: fura-2 intracellular calcium assay on HEK-293 stable cell line expressing NAM-site mutant F88A hP2X7; assay type: cell-based; details: for IC50: n = 3
T2 sequence (Q99572 1-595 F88A): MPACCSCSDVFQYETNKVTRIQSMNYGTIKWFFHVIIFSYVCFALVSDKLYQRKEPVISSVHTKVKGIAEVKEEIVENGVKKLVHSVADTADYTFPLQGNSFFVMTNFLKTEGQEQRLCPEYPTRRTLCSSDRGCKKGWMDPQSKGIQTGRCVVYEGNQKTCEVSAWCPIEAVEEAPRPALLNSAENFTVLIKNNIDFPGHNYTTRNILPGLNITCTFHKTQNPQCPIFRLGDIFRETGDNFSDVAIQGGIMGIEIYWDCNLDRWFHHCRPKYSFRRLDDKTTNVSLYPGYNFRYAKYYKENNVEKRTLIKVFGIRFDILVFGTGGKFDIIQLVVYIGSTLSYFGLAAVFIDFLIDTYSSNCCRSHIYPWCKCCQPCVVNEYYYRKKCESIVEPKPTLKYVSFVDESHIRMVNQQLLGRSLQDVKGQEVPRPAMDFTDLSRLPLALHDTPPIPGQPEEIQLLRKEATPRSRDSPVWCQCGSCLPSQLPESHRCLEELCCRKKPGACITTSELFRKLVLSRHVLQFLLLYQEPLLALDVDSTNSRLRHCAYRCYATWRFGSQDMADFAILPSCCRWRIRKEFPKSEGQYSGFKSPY
Method: as §1, with “Transfection” for “Genetically edited HEK-293 cells lacking P2Y2 receptors were used to generate stable cell lines expressing human P2X7 (hP2X7), mouse P2X7 (mP2X7), rat P2X7 (rP2X7), or mutants of the hP2X7 NAM site (F88A, M105A, and F103A). Transfection”
P2X7 responses were measured by monitoring intracellular calcium responses using fura-2AM loaded cells. Cells were plated at 2–2.5 × 10^4 cells/well the day before experiments in 96-well plates (NUNC) coated with 50 μg/mL poly-D-lysine (Merck Millipore). A loading buffer containing 2 μM fura-2AM (HelloBio) and 250 μM sulfinpyrazone (Merck Millipore) in a low divalent buffer (145 mM NaCl, 5 mM KCl, 0.2 mM CaCl2, 10 mM HEPES, 13 mM glucose, pH 7.3) was added to cells for 45 min at 37 °C. After loading, the buffer was removed and replaced with calcium-containing extracellular solution (145 mM NaCl, 5 mM KCl, 2 mM CaCl2, 10 mM HEPES, 13 mM glucose, pH 7.3). Responses were measured using a Flexstation 3 plate reader (Molecular Devices) with dual excitation wavelengths of 340 and 380 nm and single emission wavelength of 510 nm. The sample interval was 3.5 s, and each well was recorded for 180 s. Fura-2 ratios were calculated in Softmax Pro v5.4; zero baseline was applied, and responses were measured as normalized area under the curve (AUC). Dose inhibition curves were plotted using GraphPad Prism v6 nonlinear regression (three parameter fit) and log IC50 values reported.

O=C(NCC1(N2CCN(c3ccccc3)CC2)CCOCC1)c1cccnc1Sc1ccccc1 [JNJ-47965567]
IC50 ([1]; Mouse P2X7 (Table 1), mean in brackets, n = 3): 125 nM
difference between hP2X7 and mP2X7 IC50 values ([1]; mP2X7 vs hP2X7): 13 fold
IC50 ([2]; F88A hP2X7, agonist ATP, log IC50 ± standard error, read-out: Log IC50 (converted)): 121 nM
IC50 ([2]; F88A hP2X7, agonist ATP, mean in brackets, read-out: mean IC50): 125 nM
IC50 ([2]; F88A hP2X7, agonist BzATP, mean in brackets, read-out: mean IC50): 53.8 nM
increase in IC50 at F88A relative to hP2X7 ([2]; F88A hP2X7 vs hP2X7): 10 fold
